Laboratory results as given in US6515124B2, “Dehydroamino acids” (Hoffman-La Roche Inc., priority 2000, dated 2003).

Experiments:
[1] = biological target: T1, LFA-1 binding to immobilized ICAM-1 (Homo sapiens, UniProt P05107+P20701); assay: LFA-1/ICAM-1 Protein-Protein Assay (solid-phase ELISA); details: 5dICAM-Ig coated plates, membrane-bound LFA-1 from transfected 293 cells
T1 construct: made in house; host or cells: transfected 293 cells (LFA-1)
Procedure: LFA-1/ICAM-1 Protein-Protein Assay
LFA-1/ICAM-1 antagonist activity, defined as the ability to block LFA-1 binding to immobilized ICAM-1, was quantitated using a solid-phase ELISA. Typically, fusion protein consisting of the entire extracellular domain of human ICAM-1 and the Fc domain of human IgG (5dICAM-Ig) was coated onto 96-well microtiter plates (0.15 μg in 100 μL PBS) overnight at 4° C. The plates were then blocked with 150 μL of 1% BSA/1 mM MnCl2/0.14 M NaCl/20 mM HEPES, pH 7.2 for 1 h at 37° C. and washed 3 times (150 μL each) with Wash Buffer (50 mM Tris, pH 7.4/100 mM NaCl/1 mM MnCl2/0.05% Tween 20). Stock solutions (100 μM in 100% DMSO) of test compounds were diluted 50 fold with 150 μL of Binding Buffer (0.05% BSA/0.05% Tween 20/1 mM MnCl2/0.14 M NaCl/20 mM HEPES, pH 7.2) plus 10% DMSO. A series of 1:4 dilutions were performed to achieve a concentration range of 0.12 nM-2 μM. Fifty μL per well of each dilution was added to the ICAM-1 coated plates, followed by 50 μL per well of membrane-bound LFA-1 (280 ng/mL in Binding Buffer) derived from transfected 293 cells. The plates were shaken vigorously for 1 min (room temperature) and gently for 2 h (37° C.). After incubation, the plates were washed 3 times (150 μL each) with Wash Buffer. Mouse anti-human integrin β2 monoclonal antibody was added (100 μL/well, 1 μg/ml in Binding Buffer) and allowed to incubate for 1 h (37° C.) with gentle agitation. The plates were then washed 3 times with Wash Buffer. HRP-conjugated goat anti-mouse IgG (100 μL/well, 1:1500 dilution in Binding Buffer) was added to each well, followed by incubation for 1 h (37° C.) and concluded by three washes (150 μL each) with Wash Buffer. TMB solution (100 μL per well) was added for color development (10 min). The reaction was stopped by the addition of 100 μL of 1M H3PO4 to each well. The plates were then read at 450 nm.

[2] = test system: T lymphocyte proliferation (murine spleen cells); assay: Mixed Lymphocyte Reaction (MLR), one-way; type: cell-based, mice; details: C57B1/6 spleen cells with irradiated BALB/c spleen cells, tritiated thymidine incorporation, 3 days
Excerpt: Mixed Lymphocyte Reaction (MLR)
Admixture of murine spleen cells from two different inbred strains of mice induces proliferation of T lymphocytes. The magnitude of T cell proliferation depends on the extent of disparity in the major histocompatibility antigens between the two strains. Splenic T lymphocytes from both strains proliferate due to alloantigen recognition, a process for which the interaction of ICAM-1 on antigen-presenting cells with LFA-1 on lymphocytes is necessary. The ability of antagonists to inhibit T lymphocyte proliferation following recognition of alloantigens was assessed in a one-way MLR, where cells from one strain were irradiated to permit measurement of the proliferative response of cells from the other strain. Spleen cells were washed three times in tissue culture medium (TCM; see below). Fifty microliters of a spleen cell suspension (prepared at 10×10^6 cells/ml in TCM) obtained from C57B1/6 mice were added to an equal number of lethally-irradiated (2000 rads) spleen cells obtained from BALB/c mice in a 96-well U-bottom tissue culture plate (Costar, 3799). One hundred microliters of serial dilutions of antagonists or TCM were added to the spleen cell mixture. The total volume in each well was 200 μL. TCM was RPMI1640 containing 10% heat-inactivated fetal bovine serum, […] L-glutamine, 100 Units/ml each of penicillin and streptomycin and 5×10^−5 M 2-mercaptoethanol. Dilutions of antagonists were prepared in TCM. Plates were incubated in 5% CO2 for 3 days. On the third day, 0.5 μCi of tritiated thymidine (10 μCi/mL) was added to all the wells. Cells were harvested 6 h later on a 96-well plate harvester and the amount of tritiated thymidine incorporated was assessed in a liquid scintillation counter.

[3] = Mus musculus, T-lymphocyte, light or radiation study, 72 h

T1 sequence (P20701 26-1170): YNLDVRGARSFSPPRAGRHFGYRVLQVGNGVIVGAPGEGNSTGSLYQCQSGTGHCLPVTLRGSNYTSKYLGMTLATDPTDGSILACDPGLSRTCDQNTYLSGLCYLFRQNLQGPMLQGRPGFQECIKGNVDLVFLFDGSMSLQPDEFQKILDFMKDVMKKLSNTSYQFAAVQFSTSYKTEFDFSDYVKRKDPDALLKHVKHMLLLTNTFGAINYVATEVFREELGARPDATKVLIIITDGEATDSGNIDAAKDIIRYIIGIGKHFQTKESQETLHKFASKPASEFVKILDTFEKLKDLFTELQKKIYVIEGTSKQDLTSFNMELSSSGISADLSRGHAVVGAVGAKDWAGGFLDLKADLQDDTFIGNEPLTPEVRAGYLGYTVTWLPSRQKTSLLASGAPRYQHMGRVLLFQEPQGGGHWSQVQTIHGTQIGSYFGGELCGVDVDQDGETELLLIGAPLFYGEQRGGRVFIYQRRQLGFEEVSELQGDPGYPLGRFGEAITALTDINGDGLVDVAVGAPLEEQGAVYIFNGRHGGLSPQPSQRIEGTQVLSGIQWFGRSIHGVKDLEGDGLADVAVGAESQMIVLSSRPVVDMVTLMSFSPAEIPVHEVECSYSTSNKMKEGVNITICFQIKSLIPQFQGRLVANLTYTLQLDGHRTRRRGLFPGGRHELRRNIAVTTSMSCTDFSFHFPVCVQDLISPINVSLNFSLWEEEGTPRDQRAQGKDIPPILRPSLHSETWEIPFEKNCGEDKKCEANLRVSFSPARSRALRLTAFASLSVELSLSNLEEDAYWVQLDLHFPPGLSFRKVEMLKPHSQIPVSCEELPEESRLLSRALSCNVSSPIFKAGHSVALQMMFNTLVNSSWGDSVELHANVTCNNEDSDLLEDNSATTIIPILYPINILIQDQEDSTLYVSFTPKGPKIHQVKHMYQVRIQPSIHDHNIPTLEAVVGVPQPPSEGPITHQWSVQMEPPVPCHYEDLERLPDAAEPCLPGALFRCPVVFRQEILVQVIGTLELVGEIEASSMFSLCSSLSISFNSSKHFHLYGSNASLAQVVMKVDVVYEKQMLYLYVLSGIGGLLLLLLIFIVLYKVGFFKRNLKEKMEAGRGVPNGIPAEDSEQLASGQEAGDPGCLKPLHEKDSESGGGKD
T1 sequence (P05107 23-769): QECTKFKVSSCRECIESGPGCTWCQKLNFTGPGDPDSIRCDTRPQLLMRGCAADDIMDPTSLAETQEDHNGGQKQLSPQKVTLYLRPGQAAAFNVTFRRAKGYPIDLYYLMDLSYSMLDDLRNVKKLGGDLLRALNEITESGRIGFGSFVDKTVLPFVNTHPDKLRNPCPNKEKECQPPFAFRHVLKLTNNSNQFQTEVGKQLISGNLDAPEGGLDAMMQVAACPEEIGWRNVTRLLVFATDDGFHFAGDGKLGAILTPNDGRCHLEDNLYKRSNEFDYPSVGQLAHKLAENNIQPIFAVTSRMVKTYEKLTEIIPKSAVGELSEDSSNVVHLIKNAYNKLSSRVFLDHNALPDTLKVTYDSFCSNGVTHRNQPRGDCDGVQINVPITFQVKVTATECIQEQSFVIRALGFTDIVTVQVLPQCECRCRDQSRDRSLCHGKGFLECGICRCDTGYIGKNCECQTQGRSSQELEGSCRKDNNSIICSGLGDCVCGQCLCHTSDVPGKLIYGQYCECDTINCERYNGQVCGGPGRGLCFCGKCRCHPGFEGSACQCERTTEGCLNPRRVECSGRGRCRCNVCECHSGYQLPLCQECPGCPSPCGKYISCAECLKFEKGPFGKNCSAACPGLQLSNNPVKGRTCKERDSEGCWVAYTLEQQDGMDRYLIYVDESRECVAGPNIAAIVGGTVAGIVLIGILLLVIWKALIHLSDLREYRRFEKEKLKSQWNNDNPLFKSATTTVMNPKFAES

| SMILES | IC50 [1] | IC50 ([1]; mono sodium salt) | IC50 [2, 3] | IC50 ([2]; listed as 258^b) |
| --- | --- | --- | --- | --- |
| Cc1cc(C(=O)NCc2cccc(O)c2)cc(Cl)c1C(=O)N/C(=C\c1ccccc1)C(=O)O [Example 293, (Z)-2-[[2-Chloro-4-[[(3-hydroxybenzyl)amino]carbonyl]-6-methylbenzoyl]amino]-3-phenylpropenoic Acid] | 1.29 nM |  | 7100 nM |  |
| Cc1cc(C(=O)N[C@H](C)c2cccc3ccccc23)cc(C)c1C(=O)N/C(=C\c1ncc[nH]1)C(=O)O [Example 236] | 25.6 nM |  | 7180 nM |  |
| O=C(O)/C(=C/c1ccc2nsnc2c1)NC(=O)c1ccc(C(=O)NCc2cccc(O)c2)cc1Cl [Example 247] | 2 nM |  | 5150 nM |  |
| Cc1nc(C)c(/C=C(\NC(=O)c2c(C)cc(C(=O)N[C@H](C)c3cccc4ccccc34)cc2C)C(=O)O)s1 [Example 251] | 20.5 nM |  | 20000 nM |  |
| O=C(O)/C(=C/c1ccc2nonc2c1)NC(=O)c1ccc(C(=O)NCc2cccc(O)c2)cc1Cl [Example 246] | 2.4 nM |  | 7850 nM |  |
| O=C(O)/C(=C/c1cnc2ccccc2c1)NC(=O)c1ccc(C(=O)NCc2cccc3[nH]ccc23)cc1Br [Example 255] | 5.82 nM |  | 14800 nM |  |
| Cc1cc(C(=O)NCc2cccc(O)c2)ccc1C(=O)N/C(=C\c1ccc2cc[nH]c2c1)C(=O)O [Example 316, (Z)-2-[[4-[[(3-Hydroxybenzyl)amino]carbonyl]-2-methylbenzoyl]amino]-3-(1N-indol-6-yl)propenoic Acid] | 3 nM |  | 1150 nM |  |
| CC(C)c1ncsc1/C=C(\NC(=O)c1ccc(C(=O)NCc2cccc(O)c2)cc1Cl)C(=O)O [Example 300, (Z)-2-[[2-Chloro-4-[[(3-hydroxybenzyl)amino]carbonyl]benzoyl]amino]-3-[4-(1-methylethyl)thiazol-5-yl]propenoic Acid] | 32.5 nM |  | 21500 nM |  |
| C[C@@H](NC(=O)c1cc(Cl)c(C(=O)N/C(=C\c2cnc3ccccc3c2)C(=O)O)c(Cl)c1)c1cccc2ccccc12 [Example 252] | 2.68 nM |  | 2500 nM |  |
| O=C(O)/C(=C/c1cnc2ccccc2c1)NC(=O)c1ccc(C(O)/C=C/c2cccc(O)c2)cc1Cl (racemic) [Example 298, rac.-(Z)-2-[[2-Chloro-4-[(E)-1-hydroxy-3-(3-hydroxyphenyl)prop-2-en-1-yl]benzoyl]amino]-3-(quinolin-3-yl)propenoic Acid] | 4.26 nM |  | 6200 nM |  |
| O=C(O)/C(=C/c1ccccc1)NC(=O)c1ccc(C(=O)NCc2cccc3[nH]ccc23)cc1Cl [Example 306] | 10.4 nM |  | 13800 nM |  |
| Cc1nc(C(C)C)sc1/C=C(\NC(=O)c1ccc(C(=O)NCc2cccc(O)c2)cc1Cl)C(=O)O [Example 301, 2-[[2-Chloro-4-[[(3-hydroxybenzyl)amino]carbonyl]benzoyl]amino]-3-[2-(1-methylethyl)-4-methylthiazol-5-yl]propenoic Acid] | 3.03 nM |  | 4250 nM |  |
| O=C(O)/C(=C/c1nc[nH]n1)NC(=O)c1ccc(C(=O)NCc2cccc(O)c2)cc1Br [Example 290, (Z)-2-[[2-Bromo-4-[[(3-hydroxybenzyl)amino]carbonyl]benzoyl]amino]-3-(1,2,4triazol-3-yl)propenoic Acid] | 13.4 nM |  | 1300 nM |  |
| Cc1cc(C(=O)N[C@H](C)c2cccc3ccccc23)cc(C)c1C(=O)N/C(=C\c1cnc2ccccc2c1)C(=O)O [Example 241] | 2.04 nM |  | 2600 nM |  |

The remaining compounds from weak to strong by IC50 [1], led by results:

| IC50 [1] | IC50 ([1]; mono sodium salt) | SMILES | IC50 [2, 3] | IC50 ([2]; listed as 258^b) |
| --- | --- | --- | --- | --- |
| 110 nM |  | Cc1nc(C)c(/C=C(\NC(=O)c2c(C)cc(C(=O)NCc3cc(F)cc(F)c3)cc2C)C(=O)O)s1 [Example 254] | 95000 nM |  |
| 39.6 nM |  | O=C(O)/C(=C/c1cnc(N2CCOCC2)s1)NC(=O)c1ccc(C(=O)NCc2cccc(O)c2)cc1Br [Example 261] | 26000 nM |  |
| 13.1 nM |  | Cc1nc(C)c(/C=C(\NC(=O)c2ccc(C(O)/C=C/c3cccc(O)c3)cc2Cl)C(=O)O)s1 (racemic) [Example 299, rac.-(Z)-2-[[2-Chloro-4-[(E)-1-hydroxy-3-(3-hydroxyphenyl)prop-2-en-1-yl]benzoyl]amino]-3-(2,4-dimethylthiazol-5-yl)propenoic Acid] | 10000 nM |  |
| 11.8 nM |  | Cc1cc(C(=O)NCc2cccc(O)c2)ccc1C(=O)N/C(=C\c1ccccc1)C(=O)O [Example 311] | 10500 nM |  |
| 6.54 nM |  | Cc1cc(C(=O)NCc2cc(F)cc(F)c2)cc(C)c1C(=O)N/C(=C\c1cnc2ccccc2c1)C(=O)O [Example 253] | 8100 nM |  |
| 6.37 nM |  | O=C(O)/C(=C/c1ccc2ncsc2c1)NC(=O)c1ccc(C(=O)NCc2cccc3[nH]ccc23)cc1Br [Example 267] | 6380 nM |  |
| 6.2 nM |  | O=C(O)/C(=C/c1cccnc1)NC(=O)c1ccc(C(=O)NCc2cccc(O)c2)cc1Br [Example 279] | 1300 nM |  |
| 5.78 nM |  | Cc1nc(C)c(/C=C(\NC(=O)c2ccc(C(=O)NCc3cccc4[nH]ccc34)cc2Br)C(=O)O)s1 [Example 249] | 16000 nM |  |
| 4.78 nM |  | Cc1cc(C(=O)N[C@H](C)c2cccc3ccccc23)cc(C)c1C(=O)N/C(=C\c1[nH]cnc1C)C(=O)O [Example 240] | 3470 nM |  |
| 3.96 nM |  | Cc1nc(C)c(/C=C(\NC(=O)c2c(C)cc(C(=O)NCc3cccc(O)c3)cc2C)C(=O)O)s1 [Example 248] | 24000 nM |  |
| 2.38 nM |  | O=C(O)/C(=C/c1cnc2ccccc2c1)NC(=O)c1ccc(C(=O)CCc2cccc(O)c2)cc1Cl [Example 294, (Z)-2-[[2-Chloro-4-[3-(3-hydroxyphenyl)-1-oxopropan-1-yl]benzoyl]amino]-3-(quinolin-3-yl)propenoic Acid] | 13000 nM |  |
| 2.33 nM | 2.01 nM | Cc1nc(C)c(/C=C(\NC(=O)c2ccc(C(=O)NCc3cccc(O)c3)cc2Br)C(=O)O)s1 [Example 258] | 2050 nM | 2740 nM |
| 1.74 nM |  | Nc1cccc(CNC(=O)c2ccc(C(=O)N/C(=C\c3cnc4ccccc4c3)C(=O)O)c(Br)c2)c1 [Example 322] | 4450 nM |  |
| 0.84 nM |  | NS(=O)(=O)c1ccc(/C=C(\NC(=O)c2ccc(C(=O)NCc3cccc(O)c3)cc2Cl)C(=O)O)cc1 [Example 323, (Z)-3-(4-Aminosulfonylphenyl)-2-[[2-chloro-4-[[(3-hydroxybenzyl)amino]carbonyl]benzoyl]amino]propenoic Acid] | 230 nM |  |
| 0.77 nM |  | CN(C)c1ncc(/C=C(\NC(=O)c2ccc(C(=O)NCc3cccc(O)c3)cc2Br)C(=O)O)s1 [Example 260] | 3000 nM |  |
| 0.65 nM |  | Nc1ncc(/C=C(\NC(=O)c2ccc(C(=O)NCc3cccc(O)c3)cc2Cl)C(=O)O)s1 [Example 287] | 1400 nM |  |
| 0.62 nM |  | O=C(O)/C(=C/c1ccc2ccccc2c1)NC(=O)c1ccc(C(=O)NCc2cccc(O)c2)cc1Br [Example 274] | 1650 nM |  |
| 0.54 nM |  | Cc1cc(C(=O)NCc2cccc(O)c2)cc(Cl)c1C(=O)N/C(=C\c1cnc2ccccc2c1)C(=O)O [Example 292, (Z)-2-[[2-Chloro-4-[[(3-hydroxybenzyl)amino]carbonyl]-6-methylbenzoyl]amino]-3-(quinolin-3-yl)propenoic Acid] | 925 nM |  |
